According to US7709235B2, “5-Substituted hydantoin racemase, DNA encoding the same, recombinant DNA, transformed cell, and process for production of optically active N-carbamylamino acid or optically active amino acid” (priority 2005, dated 2010):

Tests used:
[1] = system: hydantoin racemase enzyme solution of transformant; test: Substrate specificity of hydantoin racemase of transformant; assay type: biochemical, Escherichia coli HB101 (pBHR001); conditions: activity for L-5-(2-methylthioethyl)hydantoin taken at 100, method of Example 2
Procedure: (§1) Substrate specificity of purified hydantoin racemase was examined. First, 0.1 ml of purified hydantoin racemase obtained in Example 1 was added to each 0.9 ml of 50 mM Tris-HCl buffers (pH 7.5) containing 50 mM L-5-(2-methylthioethyl)hydantoin, 50 mM D-5-(2-methylthioethyl)hydantoin, 13 mM D-5-(1-mercapto-1-methyl)ethylhydantoin, 8 mM L-5-isobutylhydantoin, 50 mM L-5-(1-methylpropyl)hydantoin, and 4 mM L-5-benzylhydantoin, respectively. The mixtures were allowed to react at 30° C., and the reaction was terminated by adding 0.1 ml of 1N HCl. Except for the reaction using the substrate D-5-(1-mercapto-1-methyl)ethylhydantoin, the reaction was analyzed by diluting the supernatant of a centrifuged reaction mixture two times with ion exchange water, and by quantifying the D-5-substituted hydantoin compound generated in the reaction mixture, using HPLC. HPLC analysis was performed under the conditions given above. For the reaction using the substrate D-5-(1-mercapto-1-methyl)ethylhydantoin, the reaction mixture was analyzed by quantifying a sample that had been obtained by extracting the reaction mixture with 1 ml of ethyl acetate. Analysis was performed by performing HPLC under the following conditions. Column: CHIRALPAK AD-H (Daicel), eluent: hexane/isopropanol=9/1, flow rate: 1 ml/min., column temperature: 25° C., detection: 210 nm.
Using the hydantoin racemase enzyme solution of transformant obtained in Example 7, substrate specificity was examined according to the method of Example 2. The result is shown in Table 4 as relative activities, taking the activity for L-5-(2-methylthioethyl)hydantoin at 100.

[2] = system: purified hydantoin racemase; test: Substrate specificity of purified hydantoin racemase; assay type: biochemical, Bacillus sp. KNK519HR; conditions: purified enzyme; activity for L-5-(2-methylthioethyl)hydantoin taken at 100; 30° C., Tris-HCl pH 7.5; substrate 4-50 mM
Procedure: as §1

[3] = system: hydantoin racemase produced by Bacillus sp. KNK519HR; test: Substrate specificity with crude enzyme solution coupled with D-hydantoinase and D-N-carbamylamino acid amidohydrolase, D-alanine quantified by enzyme method; assay type: biochemical; conditions: L-5-isobutylhydantoin = 100, 50 mM substrate
Procedure: Substrate specificity of hydantoin racemase produced by Bacillus sp. KNK519HR was examined using a crude enzyme solution of Bacillus sp. KNK519HR that was produced according to the procedure described in Example 1. First, 0.1 ml of crude enzyme solution was added to each 0.9 ml of 50 mM Tris-HCl buffers (pH 7.5) containing 4 mM L-5-benzylhydantoin, 50 mM L-5-(2-methylthioethyl)hydantoin, and 8 mM L-5-isobutylhydantoin, respectively. The mixtures were allowed to react at 30° C., and the reaction was terminated by adding 0.1 ml of 1N HCl. The supernatant of a centrifuged reaction mixture was diluted two times with ion exchange water, and the D-5-substituted hydantoin compound generated in the reaction mixture was quantified by HPLC. HPLC analysis was performed under the following conditions. […] After neutralization with 1N NaOH, the reaction mixture was centrifuged and the D-alanine generated in the supernatant was quantified by an enzyme method using D-amino acid oxydase and peroxydase.
Quantification of D-alanine by the enzyme method was performed as follows. […] The mixture was allowed to react for 90 minutes, and an absorbance at 555 nm was measured to quantity the D-alanine generated in the reaction mixture. […]

[4] = system: hydantoin racemase produced by Bacillus sp. KNK519HR; test: Substrate specificity with crude enzyme solution of Bacillus sp. KNK519HR (HPLC); assay type: biochemical; conditions: activity for L-5-isobutylhydantoin taken at 100, 30° C., pH 7.5, HPLC of D-hydantoin
Procedure: Substrate specificity of hydantoin racemase produced by Bacillus sp. KNK519HR was examined using a crude enzyme solution of Bacillus sp. KNK519HR that was produced according to the procedure described in Example 1. First, 0.1 ml of crude enzyme solution was added to each 0.9 ml of 50 mM Tris-HCl buffers (pH 7.5) containing 4 mM L-5-benzylhydantoin, 50 mM L-5-(2-methylthioethyl)hydantoin, and 8 mM L-5-isobutylhydantoin, respectively. The mixtures were allowed to react at 30° C., and the reaction was terminated by adding 0.1 ml of 1N HCl. The supernatant of a centrifuged reaction mixture was diluted two times with ion exchange water, and the D-5-substituted hydantoin compound generated in the reaction mixture was quantified by HPLC. HPLC analysis was performed under the following conditions. Column: Chirobiotic T (4.6 mm×250 mm, ASTEC Inc., eluent: 0.01% (v/v) Triethylamine acetate (pH 6.8)/methanol=9/1, flow rate: 0.7 ml/min., column temperature: 35° C., detection: 210 nm. Further, 0.1 ml of crude enzyme solution of Bacillus sp. KNK519HR was added to 0.9 ml of 50 mM Tris-HCl buffer (pH 7.5) containing 50 mM 5-methylhydantoin, together with recombinant Escherichia coli having D-form selective hydantoinase activity for 1 ml of culture solution (described later), and recombinant Escherichia coli having D-form selective N-carbamylamino acid amidohydrolase activity for 1 ml of culture solution. The mixture was allowed to react at 30° C., and the reaction was terminated by adding 0.1 ml of 1N HCl. After neutralization with 1N NaOH, the reaction mixture was centrifuged and the D-alanine generated in the supernatant was quantified by an enzyme method using D-amino acid oxydase and peroxydase.

[5] = system: purified hydantoin racemase; test: Measurement of Km value (Lineweaver-Burk plot); assay type: biochemical, Bacillus sp. KNK519HR; conditions: FIG. 2
Procedure: A Km value for L-5-(2-methylthioethyl)hydantoin was determined from the Lineweaver-Burk plot.

[6] = molecular target: T1, hydantoin racemase of Pseudomonas sp. (Pseudomonas sp., UniProt Q00924); conditions: Pseudomonas sp. enzyme; proportion of D-form at reaction time 10 minutes; L-5-(2-methylthioethyl)hydantoin = 100; cited from earlier work
T1 sequence (Q00924 1-249): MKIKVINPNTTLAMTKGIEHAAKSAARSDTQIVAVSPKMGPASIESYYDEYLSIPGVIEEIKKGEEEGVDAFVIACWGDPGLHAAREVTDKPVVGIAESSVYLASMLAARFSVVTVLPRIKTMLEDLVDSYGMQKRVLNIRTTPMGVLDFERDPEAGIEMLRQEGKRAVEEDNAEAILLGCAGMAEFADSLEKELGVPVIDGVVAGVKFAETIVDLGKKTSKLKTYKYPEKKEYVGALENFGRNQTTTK

[7] = Substrate inhibition of hydantoin racemase (crude enzyme solution); assay type: biochemical, Bacillus sp. KNK519HR; conditions: L-5-(2-methylthioethyl)hydantoin as substrate between 50 mM and 80 mM; initial rate, 30° C., FIG. 7
Procedure: Substrate inhibition of the hydantoin racemase produced by Bacillus sp. KNK519HR was examined using the crude enzyme solution prepared in Example 1. In a reaction mixture of 0.1-ml crude enzyme solution and each 0.9-ml of 50 mM Tris-HCl buffers (pH 7.5) respectively containing 5, 10, 50, and 80 mM L-5-(2-methylthioethyl)hydantoin, respectively, the reaction was performed at 30° C. for 10, 20, 30, and 40 minutes. After the reaction, hydantoin racemase activity was abolished by adding 0.1 ml of 1N HCl. The supernatant of the centrifuged reaction mixture was diluted two times with ion exchange water, and the D-5-(2-methylthioethyl)hydantoin generated in the reaction mixture was quantified by HPLC. HPLC analysis was performed under the same conditions used in Example 3. An initial reaction rate was determined at each initial substrate concentration. FIG. 7 represents a relationship between relative activity and initial substrate concentration.

[8] = Hydantoin racemase activity of purified enzyme, HPLC quantification of D-5-(2-methylthioethyl)hydantoin generated; assay type: biochemical, Bacillus sp. KNK519HR; conditions: 30° C., 30 minutes, 50 mM Tris-HCl buffer (pH 7.5), 50 mM L-5-(2-methylthioethyl)hydantoin; 1 unit = 1 μmol D-form per minute
Procedure: In an embodiment of the present invention, the hydantoin racemase activity of the polypeptide can be measured by, for example, quantification of D-5-(2-methylthioethyl)hydantoin generated at 30° C. in 30 minutes in 50 mM Tris (tris(hydroxymethyl)aminomethane)-HCl buffer (pH 7.5) containing 50 mM L-5-(2-methylthioethyl)hydantoin, using high-performance liquid chromatography (HPLC) or the like.
The activity of the purified hydantoin racemase was determined by HPLC, by quantifying the amount of increase of D-5-(2-methylthioethyl)hydantoin generated at 30° C. in 30 minutes in a 50 mM Tris-HCl buffer (pH 7.5) containing 50 mM L-5-(2-methylthioethyl)hydantoin. HPLC analysis was performed under the following conditions. Column: Chirobiotic T (4.6 mm×250 mm, ASTEC Inc.), eluent: 0.01% (v/v) triethylamine acetate (pH 6.8)/methanol=9/1, flow rate: 0.7 ml/min., column temperature: 35° C., detection: 210 nm. Here, 1 unit was defined as the amount of enzyme that generated 1 μmol D-5-(2-methylthioethyl)hydantoin in one minute. Quantification of protein was performed according to the Lowry method, using BSA as a standard.

[9] = Effective temperature range, optimum temperature, effective pH range and optimum pH of the enzyme; assay type: biochemical, Bacillus sp. KNK519HR; conditions: FIG. 3, activity at 40° C. taken at 100%
Procedure: Assessment was made as to effective temperature range and optimum temperature. FIG. 3 represents relative activities at different temperatures, taking the activity at 40° C. at 100%. The optimum temperature of the enzyme was 40° C., and the enzyme desirably exerted its action at all temperatures in the evaluated temperature range of 25° C. to 65° C.
Assessment was made as to effective pH range and optimum pH. […] The enzyme exerted its action in a pH range of 6 to 10. The optimum pH range was 8 to 9.

[10] = Temperature stability and pH stability of the enzyme (remaining activity); assay type: physicochemical, Bacillus sp. KNK519HR; conditions: FIG. 5
Procedure: Temperature stability of enzyme was examined as the remaining activity after 30 minutes of processing at different temperatures.
pH stability was examined. FIG. 6 represents remaining activity of enzyme after processing the enzyme at 30° C. for 16 hours at different pH, taking the activity of untreated enzyme at 100%. The enzyme was relatively stable in a pH range of 4.5 to 8.0.

CSCC[C@H]1NC(=O)NC1=O [D-5-(2-methylthioethyl)hydantoin]
Relative Activity [1]: 52 | Relative Activity [2]: 49

C[C@@H]1NC(=O)NC1=O [L-5-methylhydantoin]
Relative Activity [3]: 20

CC(C)C[C@@H]1NC(=O)NC1=O [L-5-isobutylhydantoin]
Relative Activity [4]: 100 | Relative Activity [1]: 174 | Relative Activity [2]: 173

CSCC[C@@H]1NC(=O)NC1=O [L-5-(2-methylthioethyl)hydantoin]
Km [5]: 304 µM | Relative Activity [4]: 61 | Relative Activity [6]: 100 | Relative Activity [1]: 100 | Relative Activity [2]: 100

O=C1NC(=O)[C@H](Cc2ccccc2)N1 [L-5-benzylhydantoin]
Relative Activity [4]: 35 | Relative Activity [1]: 35 | Relative Activity [2]: 52

CCC(C)[C@@H]1NC(=O)NC1=O (stereo partly drawn) [L-5-(1-methylpropyl)hydantoin]
Relative Activity [6]: 132 | Relative Activity [1]: 2 | Relative Activity [2]: 2

CC(C)(S)C1NC(=O)NC1=O [D-5-(1-mercapto-1-methyl)ethylhydantoin]
Relative Activity [1]: 9 | Relative Activity [2]: 25

B1: purified hydantoin racemase: hydantoin racemase from Bacillus sp. KNK519HR, polypeptide with the amino acid sequence of SEQ ID NO: 1 (protein, listed as Bacillus sp.)
chain: MKIKVINPNTTLAMTKGIEHAAKSAARSDTQIVAVSPKMGPASIESYYDEYLSIPGVIEEIKKGEEEGVDAFVIACWGDPGLHAAREVTDKPVVGIAESSVYLASMLAARFSVVTVLPRIKTMLEDLVDSYGMQKRVVNIRTTPMGVLDFERDPEAGIEMLRQEGKRAVEEDNAEAILLGCAGMAEFADSLEKELGVPVIDGVVAGVKFAEAIVDLGKKTSKLKTYKYPEKKEYVGALENFGLNQTTTK
substrate inhibition [7]: had substrate inhibition | specific activity [8]: 24.2 unit/mg protein | optimum temperature [9]: 40 °C | remaining activity (temperature stability) ([10]; after 30 minutes of processing at 30° C.): 80% | remaining activity (temperature stability) ([10]; after 30 minutes of processing at 70° C.): almost all activity was lost
